Structures are written as SMILES. Some results are limits rather than exact numbers.

From patent US5192799A, “Coumaran group containing amine compounds and their acid addition salts and quaternary ammonium salts and the use thereof as anti arrhythmic agents and as psychotropic agents” (Mitsui Petrochemical Industries, Ltd., priority 1987, dated 1993) come the findings set out here.

Series [1] deals with T1, serotonine 2 receptor (Rattus norvegicus, UniProt P14842).
T1 construct: frontal cortex fraction prepared from the brain of a Wistar male rat; from tissue; host or cells: rat brain frontal cortex (Wistar, male), membrane fraction
Nature of the series: [3H]ketanserin binding assay (affinity for serotonine 2 receptor). Further details: species or system Wistar male rat. Conditions: rat frontal cortex, 1 nM [3H] ketanserin, 37° C., 10 minutes. Here is the method: (§1) Striatal membranes fractions were prepared from a rat brain, and the affinity of the compounds of this invention on dopamine 2 receptors was determined by using [^3 H] spiperone assay from membranes fractions as an index. Moreover, frontal cortex membranes were prepared from a rat brain, and the affinity of the test drugs on serotonine 2 receptor was determined by using [^3 H] ketenserin binding assay. It was shown that the compounds of general formula (1) of the invention have marked anti-dopamine activity and anti-serotonine activity.
[^3 H] ketanserin binding assay
The affinity of the compound of the invention was determined on the basis of the ability to substitute [^3 H] ketanserin from a frontal cortex fraction prepared from the brain of a Wistar male rat.
The rat was decapitated, and the brain was obtained. The frontal cortex was homogenized in 40 volumes of 50 mM Tris-HCl buffer (pH 7.6), and then centrifuged. The pellets were again homogenized in 100 volumes of the same buffer, and used in a binding test. The binding test was conducted by the following procedure.
The frontal cortex (original tissue weight 1 mg/ml), 100 microliters of a test drug and 1 nM of [^3 H] ketanserin were incubated at 37° C. for 10 minutes in 50 mM Tris-HCl buffer (pH 7.6). Then, the reaction mixture was suction-filtered through a glass fiber filter (Watmann GF/B) and washed with a buffer three times.
The filter was put in a scintillation cocktail (ACSII, Amersham Co.), and after mixing, left to stand overnight. The radioactivity held on the filter was measured by a liquid scintillation counter. The nonspecific binding was measured in the presence of 1 μM of methysergide. The concentration of the test drug which inhibited 50% of a specific binding was determined from the graph and defined as IC5. Ki was calculated from the following equation. [formula]

Series [2] addresses T2, dopamine 2 receptor (Rattus norvegicus, UniProt P61169).
T2 construct: membrane fractions prepared from the brain a Wistarstrain male rat; from tissue; host or cells: rat brain striatum (Wistar, male), membrane fraction
Briefly: [3H]spiperone binding assay (affinity for dopamine 2 receptor). Further details: species or system Wistar-strain male rat. To be noted: rat striatal membranes, 0.5 nM [3H] spiperone, 37° C., 10 minutes. Here is the method:
as §1
[^3 H]spiperone binding assay
The affinity of the compounds of this invention to the dopamine 2 receptor was determined on the basis of the ability to substitute [^3 H] spiperone from stratal membrane fractions prepared from the brain a Wistarstrain male rat.
The rat was decapitated, and the brain was obtained. The striatum was homogenized in 40 volumes of 50 mM Tris-HCl buffer (pH 7.6), and then centrifuged. The pellets were again homogenized in 50 volumes of the same buffer, and used in a binding test. The binding test was conducted by the following procedure.
The stria (original tissue weight 20 mg/ml), 100 microliters of a test drug and 0.5 nM of [^3 H] spiperone were incubated at 37° C. for 10 minutes in 50 mM Tris-HCl buffer (pH 7.6). Then, the reaction mixture was suction-filtered through a glass fiber filter (Watmann GF/B) and washed with a buffer three times.
The filter was put in a scintillation cocktail (ACSII, Amersham Co.), and after mixing, left to stand overnight. The radioactivity held on the filter was measured by a liquid scintillation counter. The nonspecific binding was measured in the presence of 1 μM of (+) butaclamol. The concentration of the test drug which inhibited 50% of a specific binding was determined from the graph and defined as IC50. Ki was calculated from the following equation. [formula]

Series [3] can be described thus: in vivo. Conditions: mouse, in vivo, po. Here is the method: By using male ddY-strain 5-week old mice (3 to 4 per group), the compounds of general formula (1) were each administered orally or intraperitoneally as a solution in saline or as a suspension in methyl cellulose, and 24 hours after the administration, the toxicity of the compounds was evaluated.
Series [4] relates to right ventricle (effective refractory period). Briefly: Activity on ERP of the right ventricle. Format: in vivo, adult mongrel dog. Conditions: Canis lupus familiaris, iv, ERP before drug = 100%, read-out: ERP % (ERP prolonging activity); for change in vivo at 0.1 mg/kg: 0.1 mg/kg i.v.; for change in vivo at 0.3 mg/kg: 0.3 mg/kg i.v.; for change in vivo at 1 mg/kg: 1 mg/kg i.v.; for change in vivo at 3 mg/kg: 3 mg/kg i.v. The method, then: The pharmacological effects of the compounds of this invention represented by general formula (1) were studied. By using the heart of an adult mongrel dog, the activity of the compounds of general formula (1) were tested in vitro and in vivo. The heart of an anaethetized dog was extracted and suspended in a chamber at 37° C. in Tyrode's solution. The drug was added to Tyrode's solution being perfused through the heart specimen, and electrophysiological effects of the drug on cardiac action potential duration (APD) and maximum rate of depolarization were studied. An anaethetized dog was cut open at the chest. […] In an anaethetized and open-chested adult mongrel dug, a silver-silver chloride electrode was sutured to the right ventricle, and ventricular pacing was performed at a stimulation interval of 400 msec for a duration time of 4 msec, twice diastolic threshold. Then, a small amount of alcohol was injected through the sinus artery to extinguish the pacemaker activity, and under ventricular pacing, ERP was measured. Ten stimulations were taken as one train, and the interval between trains when the response to the first stimulation disappeared was defined as ERP. […] ERP before drug administration (intravenously or intraduodenally) was taken as 100%, and ERP prolonging activity of the drugs was expressed by %.

Series [5] concerns Purkinje fiber. Briefly: Effect on APD (APD75, field-stimulated right ventricular free wall). The format is cell-based, adult mongrel dog. Conditions: Canis lupus familiaris, purkinje, 20 min, 20 minutes incubation, 37° C., 1 Hz, control before drug = 100%, read-out: APD75 % (percent change in APD75); for activation at 3 µg/mL: dose 3 μg/ml; for activation at 10 µg/mL: dose 10 μg/ml; for activation at 1 µg/mL: dose 1 μg/ml. Here is the method:
The pharmacological effects of the compounds of this invention represented by general formula (1) were studied. By using the heart of an adult mongrel dog, the activity of the compounds of general formula (1) were tested in vitro and in vivo. The heart of an anaethetized dog was extracted and suspended in a chamber at 37° C. in Tyrode's solution. The drug was added to Tyrode's solution being perfused through the heart specimen, and electrophysiological effects of the drug on cardiac action potential duration (APD) and maximum rate of depolarization were studied. An anaethetized dog was cut open at the chest.
An adult mongrel dog was anaethetized with intravenous administration of pentobarbital, 30 mg/kg. The heart was quickly removed, and the right ventricular free wall was dissected in the Tyrode's solution. The right ventricular free wall was fixed within an incubator at 37° C., and field stimulation at 1 Hz was carried out. Intracellular potentials were measured by piercing glass microelectrodes (10-20 megaohms) into the Purkinje fiber and the wave form of cardiac action potential drawn on an oscilloBraun tube via an amplifier was analyzed by a computer. Value of APD was obtained at 75% of full repolarization (APD75). The drug was added to Tyrode's solution (20 ml) perfused through the specimen. The effect of the drug was expressed by a percent change in APD75 after incubation for 20 minutes with the control value of APD before application of the drug being taken as 100%.

Where [6] appears, read: LD50 p.o., p.o., 24 hours after administration, male ddY mice.

T2 sequence (P61169 whole entry): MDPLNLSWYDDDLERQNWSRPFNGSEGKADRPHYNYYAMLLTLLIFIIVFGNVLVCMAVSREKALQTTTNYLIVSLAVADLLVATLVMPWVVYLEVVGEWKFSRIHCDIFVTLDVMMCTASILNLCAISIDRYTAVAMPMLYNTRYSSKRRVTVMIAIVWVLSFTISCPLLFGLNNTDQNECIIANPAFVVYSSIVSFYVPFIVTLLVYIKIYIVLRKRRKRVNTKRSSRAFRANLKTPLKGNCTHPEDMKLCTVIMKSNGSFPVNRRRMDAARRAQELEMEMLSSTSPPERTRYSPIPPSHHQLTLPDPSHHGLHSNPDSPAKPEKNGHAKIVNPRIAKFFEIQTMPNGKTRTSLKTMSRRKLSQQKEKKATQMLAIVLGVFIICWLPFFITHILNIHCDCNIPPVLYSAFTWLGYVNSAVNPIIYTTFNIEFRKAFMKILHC
T1 sequence (P14842 whole entry): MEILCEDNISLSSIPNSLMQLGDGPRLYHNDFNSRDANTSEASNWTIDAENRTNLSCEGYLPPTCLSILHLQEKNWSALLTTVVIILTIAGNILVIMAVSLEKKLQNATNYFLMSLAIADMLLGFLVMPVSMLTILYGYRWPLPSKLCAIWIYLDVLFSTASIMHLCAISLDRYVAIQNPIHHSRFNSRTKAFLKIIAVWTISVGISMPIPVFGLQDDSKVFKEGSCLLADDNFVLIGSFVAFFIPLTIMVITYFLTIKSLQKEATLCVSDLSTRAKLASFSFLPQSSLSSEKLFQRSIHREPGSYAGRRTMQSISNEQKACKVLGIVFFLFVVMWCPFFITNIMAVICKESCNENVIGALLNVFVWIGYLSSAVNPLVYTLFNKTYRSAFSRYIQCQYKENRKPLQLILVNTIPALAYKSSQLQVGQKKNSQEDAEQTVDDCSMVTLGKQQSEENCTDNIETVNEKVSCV

In general, Ki refers to a measure of affinity in units of concentration, obtained from inhibition or displacement. Low values mean tighter binding, high ones weaker binding. As for `O=C1COc2cc(OCCCN(Cc3ccccc3)Cc3ccccc3)ccc21` [Compound 176], the Ki in series [1] was > 600 nM; in series [2], > 400 nM.
Usually LD50 stands for the dose at which mortality reaches 50%. Low values mean a more toxic substance, high ones a less toxic substance. Consider `CCCCCCC[N+](CC)(CC)CCCOc1ccc2oc(=O)cc(C)c2c1` [Compound 630], for which, in series [3] (setting [6]), the 50% lethal dose (LD50) at 24 h is > 300 mg/kg. Further, in series [4], the change in vivo at 0.1 mg/kg came out at 3%, the change in vivo at 0.3 mg/kg amounted to 5% and the change in vivo at 1 mg/kg is 8%. Also, in series [5], the activation at 3 µg/mL is 25% and the activation at 10 µg/mL amounted to 48%.
On to `CC1CCCCN1CCCOc1ccc2c(c1)OCC2=O` (stereo not drawn) [Compound 1114], for which the LD50 at 24 h in series [3] (setting [6]) was > 300 mg/kg. Also, in series [4], the change in vivo at 1 mg/kg was 3% and the change in vivo at 3 mg/kg turned out to be 8%. In series [5], the activation at 1 µg/mL came out at 11%, the activation at 3 µg/mL was determined as 22% and the activation at 10 µg/mL came out at 35%.
Turning to `CC1CCN(CCCOc2ccc3c(c2)OCC3=O)CC1` [Compound 1122], the LD50 at 24 h in series [3] (setting [6]) is > 300 mg/kg. Also, in series [4], the change in vivo at 1 mg/kg worked out at 9% and the change in vivo at 3 mg/kg was 15%. Besides, in series [5], the activation at 1 µg/mL was found to be 4%, the activation at 3 µg/mL stood at 15% and the activation at 10 µg/mL is 42%.
Consider `O=C1COc2cc(OCCCN3CCC(c4ccccc4)CC3)ccc21` [Compound 1138], for which the Ki in series [1] was determined as 173 nM; in series [2], 329 nM.
For `O=C1COc2cc(OCCCN3CCC(O)(c4ccc(Cl)cc4)CC3)ccc21` [Compound 1154] the same measures were > 298 nM and > 400 nM.
As to `O=C1COc2cc(OCCCN3CCc4ccccc4C3)ccc21` [Compound 1162], the Ki in series [1] was > 600 nM; in series [2] it was > 400 nM.
In the same order, the values of `CN1CCN(CCCOc2ccc3c(c2)OCC3=O)CC1` [Compound 1178] are > 600 nM and > 400 nM.
As to `O=C1COc2cc(OCCCN3CCN(Cc4ccccc4)CC3)ccc21` [Compound 1182], the results for the Ki in series [1] and in series [2] were > 600 nM and > 400 nM, respectively.
For `CN1C(=O)Cc2cnc(N3CCN(CCCOc4ccc5c(c4)OCC5=O)CC3)nc21` [Compound 1186] the same measures were 315 nM and > 400 nM.
`O=C1COc2cc(OCCCN3CCC(N4CCCCC4)CC3)ccc21` [Compound 1228]: the Ki in series [1] is > 600 nM; in series [2] it was > 400 nM.
Turning to `O=C1COc2cc(OCCCN3CCC4(CC3)C(=O)NCN4c3ccccc3)ccc21` [Compound 1246], the Ki in series [1] is > 600 nM; in series [2], > 400 nM.
For `O=C1COc2cc(OCCCN3CCN(c4ccccn4)CC3)ccc21` [Compound 1264], the Ki in series [1] is > 600 nM; in series [2], > 400 nM.
As for `CCC1CCN(CCCOc2ccc3c(c2)OCC3=O)CC1` [Compound 1274], the LD50 at 24 h in series [3] was < 300 mg/kg. In series [4], the change in vivo at 0.1 mg/kg was 0%, the change in vivo at 0.3 mg/kg turned out to be 6.7%, the change in vivo at 1 mg/kg amounted to 13.3% and the change in vivo at 3 mg/kg turned out to be 13.3%. For the same compound, in series [5], the activation at 1 µg/mL was 6% and the activation at 3 µg/mL turned out to be 19%.
Turning to `CC(C)C1CCN(CCCOc2ccc3c(c2)OCC3=O)CC1` [Compound 1278], the LD50 at 24 h in series [3] (setting [6]) was > 300 mg/kg. Further, in series [4], the change in vivo at 0.1 mg/kg came out at 1.6 ± 1.6%, the change in vivo at 0.3 mg/kg was found to be 4.8 ± 1.6%, the change in vivo at 1 mg/kg came out at 13 ± 2.4% and the change in vivo at 3 mg/kg is 19.8 ± 0.6%. In series [5], the activation at 3 µg/mL came out at 9% and the activation at 10 µg/mL was 24%.
For the compound `CCOC(=O)C1CCN(CCCOc2ccc3c(c2)OCC3=O)CC1` [Compound 1282], the LD50 at 24 h in series [3] (setting [6]) was > 300 mg/kg. Besides, in series [4], the change in vivo at 0.1 mg/kg is 0%, the change in vivo at 0.3 mg/kg was found to be 0%, the change in vivo at 1 mg/kg amounted to 6% and the change in vivo at 3 mg/kg came out at 6%. In series [5], the activation at 3 µg/mL stood at 11% and the activation at 10 µg/mL amounted to 19%.
Regarding `O=C1COc2cc(OCCCN3CCC(CO)CC3)ccc21` [Compound 1290], in series [3], the LD50 at 24 h is < 300 mg/kg. Further, in series [4], the change in vivo at 0.1 mg/kg was 0%, the change in vivo at 0.3 mg/kg was 5.9%, the change in vivo at 1 mg/kg is 11.8% and the change in vivo at 3 mg/kg is 17.7%. Moreover, in series [5], the activation at 3 µg/mL is 11% and the activation at 10 µg/mL turned out to be 28%.
For the compound `O=C1COc2cc(OCCCN3CCC4(CC3)OCCO4)ccc21` [Compound 1298], in series [3] (setting [6]), the LD50 at 24 h was > 300 mg/kg. For the same compound, the Ki is 382 nM in series [1] and > 400 nM in series [2].
For the compound `O=c1cc(-c2ccccc2)c2ccc(OCCCN3CCC(Cc4ccccc4)CC3)cc2o1` [Compound 1330], the values for the Ki in series [1] and in series [2] were > 600 nM and > 400 nM, respectively.
For `O=C1NC(=O)c2cc(OCCCN3CCC(Cc4ccccc4)CC3)ccc21` [Compound 1334] the same measures were 227 nM and > 400 nM.
As for `CC(=O)Oc1coc2cc(OCCCN3CCC(Cc4ccccc4)CC3)ccc12` [Compound 1344], the Ki in series [1] was > 600 nM; in series [2], > 400 nM.
